Measured values as given in ChEMBL document CHEMBL1212867, “Anhydrotetracycline-peptide conjugates as representatives for ligand-based transactivating systems” (Bioorg Med Chem, 2010).
Non-standard residues stand in square brackets, D forms with d. Residues, ends and D or L forms follow the SMILES beside them. *: point of attachment. X1 = Cc1c2c(c(O)c3c(O)c(N*)ccc13)C(=O)[C@]1(O)C(=O)C(C(N)=O)=C(O)[C@@H](N(C)C)[C@@H]1C2; AEEEA = NCCOCCOCCOCC(=O)O

How the values were obtained:
HeLa [1] = test: Transactivation of Reverse transactivator Tet repressor-S3 SL439, FG442, SL444 and FA475 mutant expressed in human HeLa cells at 5 uM after 24 hrs by luciferase reporter gene assay relative to untreated basal level; type: cell-based
HeLa [2] = test: Transactivation of reverse transactivator Tet repressor-S3 expressed in human HeLa cells at 5 uM after 24 hrs by luciferase reporter gene assay relative to anhydrotetracycline; type: cell-based

Row | Compound | fold change (FC) (HeLa [1]) | Activity (HeLa [2])
1 | Cc1c2c(c(O)c3c(O)cccc13)C(=O)[C@]1(O)C(=O)C(C(N)=O)=C(O)[C@@H](N(C)C)[C@@H]1C2 | 3 | –
2 | CSCC[C@H](NC(=O)[C@H](CC(=O)O)NC(=O)[C@H](CC(C)C)NC(=O)[C@H](CC(=O)O)NC(=O)[C@H](Cc1ccccc1)NC(=O)[C@@H](N)CC(=O)O)C(=O)N[C@@H](CC(C)C)C(=O)NCC(=O)NCCOCCOCCOCC(=O)Nc1ccc2c(C)c3c(c(O)c2c1O)C(=O)[C@]1(O)C(=O)C(C(N)=O)=C(O)[C@@H](N(C)C)[C@@H]1C3 (H-DFDLDMLG[AEEEA]-X1) | – | 150%
3 | CSCC[C@H](NC(=O)[C@H](CC(=O)O)NC(=O)[C@H](CC(C)C)NC(=O)[C@H](CC(=O)O)NC(=O)[C@H](Cc1ccccc1)NC(=O)[C@H](CC(=O)O)NC(=O)CNC(=O)[C@H](CC(C)C)NC(=O)[C@H](CCSC)NC(=O)[C@H](CC(=O)O)NC(=O)[C@H](CC(C)C)NC(=O)[C@H](CC(=O)O)NC(=O)[C@H](Cc1ccccc1)NC(=O)[C@H](CC(=O)O)NC(=O)COCCOCCOCCN)C(=O)N[C@@H](CC(C)C)C(=O)NCC(=O)NCCOCCOCCOCC(=O)Nc1ccc2c(C)c3c(c(O)c2c1O)C(=O)[C@]1(O)C(=O)C(C(N)=O)=C(O)[C@@H](N(C)C)[C@@H]1C3 (H-[AEEEA]DFDLDMLGDFDLDMLG[AEEEA]-X1) | 9 | 190%
